Results reported in patent EP1115693B9, “SUBSTITUTED POLYCYCLIC ARYL AND HETEROARYL $i([sequence])-HETEROALKYLAMINES USEFUL FOR INHIBITING CHOLESTERYL ESTER [sequence] PROTEIN ACTIVITY” (Monsanto Company, priority 1998, dated 2000).

How the values were obtained:
[1] = target: T1, CETP (Homo sapiens, UniProt P11597); assay: Assay of CETP inhibition in human plasma: transfer of [3H]CE from [3H]CE-HDL to VLDL and LDL; format: biochemical; parameters: Blood was obtained from healthy volunteers; from tissue; host or cells: pooled human EDTA plasma from healthy volunteers; conditions: inhibition of transfer of [3H]CE from [3H]CE-HDL to VLDL and LDL
T1 sequence (P11597 18-493): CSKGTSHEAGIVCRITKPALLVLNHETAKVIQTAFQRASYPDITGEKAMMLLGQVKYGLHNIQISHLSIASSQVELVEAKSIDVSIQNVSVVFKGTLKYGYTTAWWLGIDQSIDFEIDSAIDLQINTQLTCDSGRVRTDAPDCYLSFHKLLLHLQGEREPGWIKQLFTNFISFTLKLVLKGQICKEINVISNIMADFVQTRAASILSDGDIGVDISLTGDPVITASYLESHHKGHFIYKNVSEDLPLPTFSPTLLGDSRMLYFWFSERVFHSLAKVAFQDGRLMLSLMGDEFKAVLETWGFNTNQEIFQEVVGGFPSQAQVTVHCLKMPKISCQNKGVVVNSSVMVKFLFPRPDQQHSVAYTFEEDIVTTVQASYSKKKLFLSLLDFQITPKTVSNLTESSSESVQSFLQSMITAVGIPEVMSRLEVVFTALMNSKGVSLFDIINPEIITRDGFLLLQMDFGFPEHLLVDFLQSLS
Method: ASSAY OF CETP INHIBITION IN HUMAN PLASMA
Blood was obtained from healthy volunteers, recruited from the personnel of Monsanto Company, Saint Louis, MO. Blood was collected in tubes containing EDTA (EDTA plasma pool). The EDTA human plasma pool, previously stored at -20 °C, was thawed at room temperature and centrifuged for 5 minutes to remove any particulate matter. […] Equal volumes (396 µL) of the plasma containing the [^3H]CE-HDL were added by pipette into micro tubes (Titertube®, Bio-Rad laboratories, Hercules, CA). Inhibitor compounds, dissolved as 20-50 mM stock solutions in DMSO, were serially diluted in DMSO (or an alternative solvent in some cases, such as dimethylformamide or ethanol). Four µL of each of the serial dilutions of inhibitor compounds or DMSO alone were then added to each of the tubes containing plasma (396 µL). After mixing, triplicate aliquots (100 µL) from each plasma tube were then transferred to wells of 96-well roundbottomed polystyrene microtiter plates (Corning, Corning, NY). Plates were sealed with plastic film and incubated at 37 °C for 4 hours. "Test" samples contained plasma with dilutions of inhibitor compounds. "Control" samples contained plasma with DMSO diluted to the same concentration as the test samples, but without inhibitor. "Blank" samples were prepared as "control" samples, but were left in the micro tubes at 4 °C for the 4 hour incubation and were then added to the microtiter wells at the end of the incubation period. VLDL and LDL were precipitated by the addition of 10 µL of precipitating reagent (1% (w/v) dextran sulfate (Dextralip50)/0.5 M magnesium chloride, pH 7.4) to all wells. The wells were mixed on a plate mixer and then incubated at ambient temperature for 10 min. The plates were then centrifuged at 1000 x g for 30 min at 10 °C. The supernatants (50 µL) from each well were then transferred to Picoplate™ 96 plate wells (Packard, Meriden. CT) containing Microscint™-40 (Packard, Meriden, CT). The plates were heat-sealed (TopSeal™-P, Packard, Meriden, CT) according to the manufacturer's directions and mixed for 30 min. Radioactivity was measured on a microplate scintillation counter (TopCount. Packard, Meriden, CT). The maximum percentage transfer in the control wells (% transfer) was determined using the following equation: % Transfer = ([dpmblank -dpmcontrol ] × 100)/(dpmblank) [formula]
The percentage of transfer relative to the control (% control) was determined in the wells containing inhibitor compounds was determined as follows: % Control = ([dpmblank -dpmtest ] × 100)/(dpmblank -dpmcontrol) [formula]
IC50 values were then calculated from plots of % control versus concentration of inhibitor compound. […]

[2] = target: T1, CETP; assay: Assay of CETP inhibition using purified components (reconstituted buffer assay): transfer of [3H]CE from HDL to LDL; format: biochemical; parameters: made in house; host or cells: CHO cells (serum-free conditioned medium); conditions: 2 hours at 37°C
Method: ASSAY OF CETP INHIBITION USING PURIFIED COMPONENTS (RECONSTITUTED BUFFER ASSAY)
The ability of compounds to inhibit CETP activity was assessed using an in vitro assay that measured the rate of transfer of radiolabeled cholesteryl ester ([^3H]CE) from HDL donor particles to LDL acceptor particles. Details of the assay are provided by Glenn, K. C. et al. (Glenn and Melton, "Quantification of Cholesteryl Ester Transfer Protein (CETP): A) CETP Activity and B) Immunochemical Assay of CETP Protein," Meth. Enzymol., 263, 339-351 (1996)). Human recombinant CETP can be obtained from the serum-free conditioned medium of CHO cells transfected with a cDNA for CETP and purified as described by Wang, S. et al. (J. Biol. Chem. 267, 17487-17490 (1992)). To measure CETP activity, [^3H]CE-labeled-HDL, LDL, CETP and assay buffer (50 mM tris(hydroxymethyl)aminomethane, pH 7.4; 150 mM sodium chloride; 2 mM ethylenediamine-tetraacetic acid (EDTA); 1% bovine serum albumin) were incubated in a final volume of 200 µL, for 2 hours at 37°C in 96 well plates. […] The inhibitors were then diluted 1:1 with CETP in assay buffer, and then 25 µL of that solution was mixed with 175 µL of lipoprotein pool for assay. Following incubation, LDL was differentially precipitated by the addition of 50 µL of 1% (w/v) dextran sulfate/0.5 M magnesium chloride, mixed by vortex, and incubated at room temperature for 10 minutes. A potion of the solution (200 µL) was transferred to a filter plate (Millipore). After filtration, the radioactivity present in the precipitated LDL was measured by liquid scintillation counting.
This value was defined as the IC50.

IC50 [1] [µM]	IC50 [2] [µM]	Compound
> 100	3.1	OC(CN(Cc1cccc(OC(F)(F)C(F)F)c1)c1cccc(N2CCC(Cc3ccccc3)CC2)c1)C(F)(F)F (centres unmarked) [compound 316]
13	0.52	CC(C)Oc1cccc(CN(CC(O)C(F)(F)F)c2cccc(Oc3ccc(F)cc3)c2)c1 (centres unmarked) [compound 647]
38	0.91	OC(CN(Cc1cccc(OC2CCCC2)c1)c1cccc(Oc2ccc(F)cc2)c1)C(F)(F)F (centres unmarked) [compound 653]
5	0.21	OC(CN(Cc1cccc(OC(F)(F)C(F)F)c1)c1cccc(Oc2ccc(F)cc2F)c1)C(F)(F)F (centres unmarked) [compound 639]
> 100	7.7	OC(CN(Cc1ccc(Cl)s1)c1cccc(OC(F)(F)F)c1)C(F)(F)F (centres unmarked) [compound 346]
50	1.1	OC(CN(Cc1cccc(SC(F)(F)F)c1)c1cc(Oc2ccc(F)cc2)cc(C(F)(F)F)c1)C(F)(F)F (centres unmarked) [compound 642]
12	0.84	Cc1ccc(Oc2cccc(N(Cc3cccc(OC(F)(F)C(F)F)c3)CC(O)C(F)(F)F)c2)cn1 (centres unmarked) [compound 282]
30	0.44	OC(CN(Cc1cccc(OC(F)(F)C(F)F)c1)c1cccc(Oc2ccc(OC(F)(F)F)cc2)c1)C(F)(F)F (centres unmarked) [compound 658]
30	0.41	CCC(C)Oc1cccc(CN(CC(O)C(F)(F)F)c2cccc(Oc3ccc(F)cc3)c2)c1 (centres unmarked) [compound 650]
8	0.47	Cc1ccc(Oc2cccc(N(Cc3cccc(SC(F)(F)F)c3)CC(O)C(F)(F)F)c2)cc1 (centres unmarked) [compound 637]
120	5.5	OC(CN(Cc1ccc(OC(F)(F)F)cc1)c1cccc(OC(F)(F)F)c1)C(F)(F)F (centres unmarked) [compound 60]
> 100	3.4	OC(CN(Cc1cccc(OC(F)(F)C(F)F)c1)c1cccc(N2CCC3(CC2)OCCO3)c1)C(F)(F)F (centres unmarked) [compound 317]

Compound	IC50 [1] [µM]	IC50 [2] [µM]
CC(C)c1ccc(Oc2cccc(N(Cc3cccc(OC(F)(F)C(F)F)c3)CC(O)C(F)(F)F)c2)cc1 (centres unmarked) [compound 250]	31	0.44
